Measurements: patent publication US20230085307A1, “PYRIDAZINONE COMPOUND AND HERBICIDE” (NISSAN CHEMICAL CORPORATION, priority 2019, published 2023)

Key:
chickweed = test: Test Example 4: herbicidal effect by soil treatment (Table 19, symbol P); format: in vivo, common chickweed (Stellaria media)
In short: (§1)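 Herbicidal effect was rated 3 weeks after treatment, using the scoring criteria of an earlier test. The compound, formulated as an emulsion and diluted in water to a set herbicide amount, had been sprayed uniformly on soil over freshly sown seeds. Growth took place in a greenhouse at 25° C. to 30° C.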

rice flat sedge = test: Test Example 3: herbicidal effect by foliage application, Wagner pot (Table 18, symbol E); format: in vivo, rice flat sedge (Cyperus iria)
In short: (§2)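 Plants were sown in alluvial soil held under 0.1–0.5 cm standing water and grown 14 days in a greenhouse at 25–30 °C. An emulsifiable formulation, water-diluted to the set dose, was then sprayed onto the foliage, and effects were scored three weeks later using previously defined criteria.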

velvetleaf [1] = test: Test Example 5: herbicidal effect by foliage application, plastic box (Table 20, symbol M); format: in vivo, velvetleaf (Abutilon theophrasti); details: foliage application, 320 g/ha
In short: (§3)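 Foliar spray test: emulsion formulation diluted in water to a set application rate, sprayed onto 14-day-old plants raised in diluvial soil at 25° C to 30° C under glass. Both herbicidal effect and crop effect rated visually three weeks later.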

green foxtail [2] = test: Test Example 5: herbicidal effect by foliage application, plastic box (Table 20, symbol G); format: in vivo, green foxtail (Setaria viridis); details: foliage application, 320 g/ha
In short: as §3

green foxtail [3] = test: Test Example 4: herbicidal effect by soil treatment (Table 19, symbol G); format: in vivo, green foxtail (Setaria viridis)
In short: as §1

redroot pigweed = test: Test Example 4: herbicidal effect by soil treatment (Table 19, symbol N); format: in vivo, redroot pigweed (Amaranthus retroflexus)
In short: as §1

Italian ryegrass [4] = test: Test Example 4: herbicidal effect by soil treatment (Table 19, symbol K); format: in vivo, Italian ryegrass (Lolium multiflorum)
In short: as §1

Chinese sprangletop = test: Test Example 3: herbicidal effect by foliage application, Wagner pot (Table 18, symbol D); format: in vivo, chinese sprangletop (Leptochloa chinensis)
In short: as §2

southern crabgrass [5] = test: Test Example 5: herbicidal effect by foliage application, plastic box (Table 20, symbol F); format: in vivo, southern crabgrass (Digitaria ciliaris); details: foliage application, 320 g/ha
In short: as §3

windgrass [6] = test: Test Example 4: herbicidal effect by soil treatment (Table 19, symbol L); format: in vivo, windgrass (Apera spica-venti)
In short: as §1

wild oat [7] = test: Test Example 5: herbicidal effect by foliage application, plastic box (Table 20, symbol I); format: in vivo, wild oat (Avena fatua); details: foliage application, 320 g/ha
In short: as §3

velvetleaf [8] = test: Test Example 4: herbicidal effect by soil treatment (Table 19, symbol M); format: in vivo, velvetleaf (Abutilon theophrasti)
In short: as §1

lambsquarters [9] = test: Test Example 4: herbicidal effect by soil treatment (Table 19, symbol O); format: in vivo, lambsquarters (Chenopodium album)
In short: as §1

persian speedwell [10] = test: Test Example 5: herbicidal effect by foliage application, plastic box (Table 20, symbol R); format: in vivo, Persian speedwell (Veronica persica); details: foliage application, 320 g/ha
In short: as §3

southern crabgrass [11] = test: Test Example 4: herbicidal effect by soil treatment (Table 19, symbol F); format: in vivo, southern crabgrass (Digitaria ciliaris)
In short: as §1

barnyard grass [12] = test: Test Example 5: herbicidal effect by foliage application, plastic box (Table 20, symbol H); format: in vivo, barnyard grass (Echinochloa crus-galli); details: foliage application, 320 g/ha
In short: as §3

barnyard grass [13] = test: Test Example 4: herbicidal effect by soil treatment (Table 19, symbol H); format: in vivo, barnyard grass (Echinochloa crus-galli)
In short: as §1

blackgrass [14] = test: Test Example 4: herbicidal effect by soil treatment (Table 19, symbol J); format: in vivo, blackgrass (Alopecurus myosuroides)
In short: as §1

wild oat [15] = test: Test Example 4: herbicidal effect by soil treatment (Table 19, symbol I); format: in vivo, wild oat (Avena fatua)
In short: as §1

persian speedwell [16] = test: Test Example 4: herbicidal effect by soil treatment (Table 19, symbol R); format: in vivo, Persian speedwell (Veronica persica)
In short: as §1

barnyard grass [17] = test: Test Example 3: herbicidal effect by foliage application, Wagner pot (Table 18, symbol H); format: in vivo, barnyard grass (Echinochloa crus-galli)
In short: as §2

windgrass [18] = test: Test Example 5: herbicidal effect by foliage application, plastic box (Table 20, symbol L); format: in vivo, windgrass (Apera spica-venti); details: foliage application, 320 g/ha
In short: as §3

false cleavers = test: Test Example 4: herbicidal effect by soil treatment (Table 19, symbol Q); format: in vivo, false cleavers (Galium spurium)
In short: as §1

lambsquarters [19] = test: Test Example 5: herbicidal effect by foliage application, plastic box (Table 20, symbol O); format: in vivo, lambsquarters (Chenopodium album); details: foliage application, 320 g/ha
In short: as §3

Italian ryegrass [20] = test: Test Example 5: herbicidal effect by foliage application, plastic box (Table 20, symbol K); format: in vivo, Italian ryegrass (Lolium multiflorum); details: foliage application, 320 g/ha
In short: as §3

blackgrass [21] = test: Test Example 5: herbicidal effect by foliage application, plastic box (Table 20, symbol J); format: in vivo, blackgrass (Alopecurus myosuroides); details: foliage application, 320 g/ha
In short: as §3

[22] = amount of applied herbicide 320 g/ha

Compound: Cc1nn(C)c(=O)c(-c2c(-c3ccc(CSCC(F)(F)F)cc3)sc3ccccc23)c1O [1-249]
- P: chickweed, herbicidal effect rating (chickweed; AAH 320 g/ha): 0 (Herbicidal rate of 5% or less (almost no effect))
- herbicidal effect on E (rice flat sedge), rating 0-5 (rice flat sedge; 320 g/ha): 3 (Herbicidal rate of 40% or more and less than 70%)
- effect on velvetleaf (M) (velvetleaf [1]; 3 weeks after application): 5 (Herbicidal rate of 90% or more (almost completely withered))
- effect on green foxtail (G) (green foxtail [2]; 3 weeks after application): 4 (Herbicidal rate of 70% or more and less than 90%)
- G: green foxtail, herbicidal effect rating (green foxtail [3]; AAH 320 g/ha): 0 (Herbicidal rate of 5% or less (almost no effect))
- N: redroot pigweed, herbicidal effect rating (redroot pigweed; AAH 320 g/ha): 3 (Herbicidal rate of 40% or more and less than 70%)
- K: Italian ryegrass, herbicidal effect rating (Italian ryegrass [4]; AAH 320 g/ha): 3 (Herbicidal rate of 40% or more and less than 70%)
- herbicidal effect on D (Chinese sprangletop), rating 0-5 (Chinese sprangletop; 320 g/ha): 3 (Herbicidal rate of 40% or more and less than 70%)
- effect on southern crabgrass (F) (southern crabgrass [5]; 3 weeks after application): 4 (Herbicidal rate of 70% or more and less than 90%)
- L: windgrass, herbicidal effect rating (windgrass [6]; AAH 320 g/ha): 0 (Herbicidal rate of 5% or less (almost no effect))
- effect on wild oat (I) (wild oat [7]; 3 weeks after application): 0 (Herbicidal rate of 5% or less (almost no effect))
- M: velvetleaf, herbicidal effect rating (velvetleaf [8]; AAH 320 g/ha): 0 (Herbicidal rate of 5% or less (almost no effect))
- O: lambsquarters, herbicidal effect rating (lambsquarters [9]; AAH 320 g/ha): 3 (Herbicidal rate of 40% or more and less than 70%)
- effect on persian speedwell (R) (persian speedwell [10]; 3 weeks after application): 5 (Herbicidal rate of 90% or more (almost completely withered))
- F: southern crabgrass, herbicidal effect rating (southern crabgrass [11]; AAH 320 g/ha): 0 (Herbicidal rate of 5% or less (almost no effect))
- effect on barnyard grass (H) (barnyard grass [12]; 3 weeks after application): 4 (Herbicidal rate of 70% or more and less than 90%)
- H: barnyard grass, herbicidal effect rating (barnyard grass [13]; AAH 320 g/ha): 0 (Herbicidal rate of 5% or less (almost no effect))
- J: blackgrass, herbicidal effect rating (blackgrass [14]; AAH 320 g/ha): 0 (Herbicidal rate of 5% or less (almost no effect))
- I: wild oat, herbicidal effect rating (wild oat [15]; AAH 320 g/ha): 0 (Herbicidal rate of 5% or less (almost no effect))
- R: persian speedwell, herbicidal effect rating (persian speedwell [16]; AAH 320 g/ha): 4 (Herbicidal rate of 70% or more and less than 90%)
- herbicidal effect on H (barnyard grass), rating 0-5 (barnyard grass [17]; 320 g/ha): 5 (Herbicidal rate of 90% or more (almost completely withered))
- effect on windgrass (L) (windgrass [18]; 3 weeks after application): 0 (Herbicidal rate of 5% or less (almost no effect))
- Q: false cleavers, herbicidal effect rating (false cleavers; AAH 320 g/ha): 0 (Herbicidal rate of 5% or less (almost no effect))
- effect on lambsquarters (O) (lambsquarters [19]; 3 weeks after application): 5 (Herbicidal rate of 90% or more (almost completely withered))
- effect on Italian ryegrass (K) (Italian ryegrass [20]; 3 weeks after application): 4 (Herbicidal rate of 70% or more and less than 90%)
- effect on blackgrass (J) (blackgrass [21]; 3 weeks after application): 0 (Herbicidal rate of 5% or less (almost no effect))

Compound: CCSc1ccc(-c2oc3ccc(F)cc3c2-c2c(O)c(C)nn(C)c2=O)cc1 [9-039]
- P: chickweed, herbicidal effect grade (chickweed; [22]): 3 (Herbicidal rate of 40% or more and less than 70%)
- Herbicidal effect on E (rice flat sedge), foliage application (rice flat sedge; [22]): 5 (Herbicidal rate of 90% or more (almost completely withered))
- herbicidal effect on velvetleaf (M) (velvetleaf [1]; three weeks after application): 5 (Herbicidal rate of 90% or more (almost completely withered))
- herbicidal effect on green foxtail (G) (green foxtail [2]; three weeks after application): 5 (Herbicidal rate of 90% or more (almost completely withered))
- G: green foxtail, herbicidal effect grade (green foxtail [3]; [22]): 5 (Herbicidal rate of 90% or more (almost completely withered))
- N: redroot pigweed, herbicidal effect grade (redroot pigweed; [22]): 5 (Herbicidal rate of 90% or more (almost completely withered))
- K: Italian ryegrass, herbicidal effect grade (Italian ryegrass [4]; [22]): 5 (Herbicidal rate of 90% or more (almost completely withered))
- Herbicidal effect on D (Chinese sprangletop), foliage application (Chinese sprangletop; [22]): 1 (Herbicidal rate of 5% or more and less than 20%)
- herbicidal effect on southern crabgrass (F) (southern crabgrass [5]; three weeks after application): 5 (Herbicidal rate of 90% or more (almost completely withered))
- L: windgrass, herbicidal effect grade (windgrass [6]; [22]): 0 (Herbicidal rate of 5% or less (almost no effect))
- herbicidal effect on wild oat (I) (wild oat [7]; three weeks after application): 4 (Herbicidal rate of 70% or more and less than 90%)
- M: velvetleaf, herbicidal effect grade (velvetleaf [8]; [22]): 3 (Herbicidal rate of 40% or more and less than 70%)
- O: lambsquarters, herbicidal effect grade (lambsquarters [9]; [22]): 4 (Herbicidal rate of 70% or more and less than 90%)
- herbicidal effect on persian speedwell (R) (persian speedwell [10]; three weeks after application): 5 (Herbicidal rate of 90% or more (almost completely withered))
- F: southern crabgrass, herbicidal effect grade (southern crabgrass [11]; [22]): 4 (Herbicidal rate of 70% or more and less than 90%)
- herbicidal effect on barnyard grass (H) (barnyard grass [12]; three weeks after application): 3 (Herbicidal rate of 40% or more and less than 70%)
- H: barnyard grass, herbicidal effect grade (barnyard grass [13]; [22]): 2 (Herbicidal rate of 20% or more and less than 40%)
- J: blackgrass, herbicidal effect grade (blackgrass [14]; [22]): 0 (Herbicidal rate of 5% or less (almost no effect))
- I: wild oat, herbicidal effect grade (wild oat [15]; [22]): 0 (Herbicidal rate of 5% or less (almost no effect))
- R: persian speedwell, herbicidal effect grade (persian speedwell [16]; [22]): 5 (Herbicidal rate of 90% or more (almost completely withered))
- Herbicidal effect on H (barnyard grass), foliage application (barnyard grass [17]; [22]): 5 (Herbicidal rate of 90% or more (almost completely withered))
- herbicidal effect on windgrass (L) (windgrass [18]; three weeks after application): 5 (Herbicidal rate of 90% or more (almost completely withered))
- Q: false cleavers, herbicidal effect grade (false cleavers; [22]): 0 (Herbicidal rate of 5% or less (almost no effect))
- herbicidal effect on lambsquarters (O) (lambsquarters [19]; three weeks after application): 5 (Herbicidal rate of 90% or more (almost completely withered))
- herbicidal effect on Italian ryegrass (K) (Italian ryegrass [20]; three weeks after application): 5 (Herbicidal rate of 90% or more (almost completely withered))
- herbicidal effect on blackgrass (J) (blackgrass [21]; three weeks after application): 4 (Herbicidal rate of 70% or more and less than 90%)
